According to ChEMBL document CHEMBL4257571, “Discovery of 5-(2-chloro-4'-(1H-imidazol-1-yl)-[1,1'-biphenyl]-4-yl)-1H-tetrazole as potent and orally efficacious S-nitrosoglutathione reductase (GSNOR) inhibitors for the potential treatment of COPD” (Bioorg Med Chem Lett, 2018):
Converted amounts (≈) assume the structure as drawn.

Legend:
[1] = biological target: CYP2C9 (Homo sapiens, UniProt P11712); test: Inhibition of CYP2C9 in human liver microsomes at 10 uM after 20 mins in presence of NADPH by LC/MS/MS analysis relative to control; type: ADME
Chain of CYP2C9 (P11712 whole entry): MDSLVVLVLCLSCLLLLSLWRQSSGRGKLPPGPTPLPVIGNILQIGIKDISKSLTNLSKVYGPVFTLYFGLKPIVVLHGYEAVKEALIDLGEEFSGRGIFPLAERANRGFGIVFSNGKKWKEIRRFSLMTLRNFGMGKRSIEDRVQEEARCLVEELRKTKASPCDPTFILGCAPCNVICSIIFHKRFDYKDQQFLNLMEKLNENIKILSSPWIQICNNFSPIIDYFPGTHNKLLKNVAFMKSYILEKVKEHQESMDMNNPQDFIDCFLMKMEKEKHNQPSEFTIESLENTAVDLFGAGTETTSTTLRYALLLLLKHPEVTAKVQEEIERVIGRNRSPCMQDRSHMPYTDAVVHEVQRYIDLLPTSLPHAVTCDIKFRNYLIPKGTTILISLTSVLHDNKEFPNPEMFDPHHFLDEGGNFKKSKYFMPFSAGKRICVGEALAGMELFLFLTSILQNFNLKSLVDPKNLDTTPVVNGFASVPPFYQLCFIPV

[2] = Metabolic stability of mouse liver microsomes assessed as parent compound remaining at 0.1 uM after 60 mins in presence of NADPH by LC/MS/MS analysis; type: ADME, microsome; details: read-out: Stability
[3] = Cmax in C57/BL6 mouse at 30 mg/kg, po; type: ADME, organism-based; set-up: dose 30 mg/kg, route oral; details: in vivo
[4] = Aqueous solubility of compound in phosphate buffer at pH 6.8; type: physicochemical
[5] = test system: Mus musculus; test: (§1) Anti-inflammatory activity in C57BL/6 mouse model of cigarette smoke induced chronic obstructive pulmonary disease assessed as macrophages count in bronchoalveolar lavage at 30 mg/kg, po administered once daily for 7 days 1 hr prior to first smoke exposure and measured on day 8 after last smoke exposure post single drug treatment by Leishman's staining based assay; type: functional
[6] = Inhibition of MT3 receptor (unknown origin) at 10 uM relative to control
[7] = AUC (0 to 24 hrs) in C57/BL6 mouse at 30 mg/kg, po; type: ADME, organism-based; set-up: time < 24 hr, dose 30 mg/kg, route oral; details: in vivo
[8] = Aqueous solubility of compound in fed state simulated intestinal fluid at pH 5.2; type: physicochemical
[9] = Volume of distribution in C57/BL6 mouse at 3 mg/kg, iv; type: ADME, organism-based; details: in vivo, read-out: Vz
[10] = test system: Mus musculus; test: as §1, with “neutrophil” for “macrophages”, “3” for “30”; type: functional
[11] = biological target: CYP3A4 (Homo sapiens, UniProt P08684); test: Inhibition of CYP3A4 in human liver microsomes at 10 uM after 20 mins in presence of NADPH by LC/MS/MS analysis relative to control; type: ADME; details: liver microsomes
Chain of CYP3A4 (P08684 whole entry): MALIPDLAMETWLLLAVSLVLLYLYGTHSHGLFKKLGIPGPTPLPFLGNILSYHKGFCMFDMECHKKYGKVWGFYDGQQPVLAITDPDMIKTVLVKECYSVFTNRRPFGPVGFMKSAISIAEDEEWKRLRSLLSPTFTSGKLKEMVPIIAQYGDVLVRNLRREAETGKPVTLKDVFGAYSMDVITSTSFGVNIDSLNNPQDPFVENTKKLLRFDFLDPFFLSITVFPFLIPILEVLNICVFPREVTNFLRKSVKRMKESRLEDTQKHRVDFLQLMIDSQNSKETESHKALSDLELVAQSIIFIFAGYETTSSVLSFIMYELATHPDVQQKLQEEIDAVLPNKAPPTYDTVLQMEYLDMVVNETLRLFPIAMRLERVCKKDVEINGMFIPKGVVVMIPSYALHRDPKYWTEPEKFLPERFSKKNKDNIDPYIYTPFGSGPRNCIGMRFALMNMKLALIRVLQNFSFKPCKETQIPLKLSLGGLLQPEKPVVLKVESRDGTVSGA

[12] = biological target: Alcohol dehydrogenase class-3 (Rattus norvegicus, UniProt P12711); test: Inhibition of rat GSNOR assessed as reduction in NADH consumption after 3 mins by spectrophotometric analysis
Chain of Alcohol dehydrogenase class-3 (Rattus norvegicus, UniProt P12711) (P12711 whole entry): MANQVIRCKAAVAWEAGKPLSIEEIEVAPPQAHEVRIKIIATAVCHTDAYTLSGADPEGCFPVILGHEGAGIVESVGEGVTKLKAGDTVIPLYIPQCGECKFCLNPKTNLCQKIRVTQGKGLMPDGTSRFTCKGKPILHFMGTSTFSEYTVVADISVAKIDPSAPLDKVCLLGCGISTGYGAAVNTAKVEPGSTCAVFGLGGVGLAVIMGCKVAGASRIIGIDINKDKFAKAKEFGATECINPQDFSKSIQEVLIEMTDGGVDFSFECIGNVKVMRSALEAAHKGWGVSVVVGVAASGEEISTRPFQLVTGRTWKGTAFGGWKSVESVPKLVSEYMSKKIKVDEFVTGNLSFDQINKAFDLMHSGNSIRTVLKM

[13] = organism: Bos taurus; test: Inhibition of bovine PDE6 at 10 uM using [3H]cGMP as substrate after 60 mins by scintillation counting analysis relative to control
[14] = Aqueous solubility of compound in 0.1 N HCl; type: physicochemical
[15] = Apparent permeability in human Calu3 cells; type: ADME, cell-based, Calu-3
[16] = Effective permeability of the compound by PAMPA assay; type: ADME; details: read-out: Peff
[17] = biological target: Alcohol dehydrogenase class-3 (Homo sapiens, UniProt P11766); test: Inhibition of human GSNOR assessed as reduction in NADH consumption after 3 mins by spectrophotometric analysis
Chain of Alcohol dehydrogenase class-3 (Homo sapiens, UniProt P11766) (P11766 whole entry): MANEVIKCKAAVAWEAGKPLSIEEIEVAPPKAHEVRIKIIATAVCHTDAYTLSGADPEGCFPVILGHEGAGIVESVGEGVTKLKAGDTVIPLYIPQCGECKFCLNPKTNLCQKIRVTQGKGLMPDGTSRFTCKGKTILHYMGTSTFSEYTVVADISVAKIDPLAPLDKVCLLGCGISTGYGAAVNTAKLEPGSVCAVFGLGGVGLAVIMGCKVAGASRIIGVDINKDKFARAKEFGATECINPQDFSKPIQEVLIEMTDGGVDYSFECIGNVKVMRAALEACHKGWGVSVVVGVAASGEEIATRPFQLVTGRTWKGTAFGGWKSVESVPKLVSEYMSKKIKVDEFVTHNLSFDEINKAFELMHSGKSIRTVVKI

[18] = Aqueous solubility of compound in acetate buffer at pH 4.5; type: physicochemical
[19] = Ratio of drug uptake in lung to plasma of C57/BL6 mouse at 3 mg/kg, iv or 30 mg/kg, po; type: ADME, organism-based
[20] = biological target: hERG (KCNH2) (Homo sapiens, UniProt Q12809); test: Inhibition of human ERG at 10 uM by patch clamp assay relative to control
Chain of hERG (KCNH2) (Q12809 whole entry): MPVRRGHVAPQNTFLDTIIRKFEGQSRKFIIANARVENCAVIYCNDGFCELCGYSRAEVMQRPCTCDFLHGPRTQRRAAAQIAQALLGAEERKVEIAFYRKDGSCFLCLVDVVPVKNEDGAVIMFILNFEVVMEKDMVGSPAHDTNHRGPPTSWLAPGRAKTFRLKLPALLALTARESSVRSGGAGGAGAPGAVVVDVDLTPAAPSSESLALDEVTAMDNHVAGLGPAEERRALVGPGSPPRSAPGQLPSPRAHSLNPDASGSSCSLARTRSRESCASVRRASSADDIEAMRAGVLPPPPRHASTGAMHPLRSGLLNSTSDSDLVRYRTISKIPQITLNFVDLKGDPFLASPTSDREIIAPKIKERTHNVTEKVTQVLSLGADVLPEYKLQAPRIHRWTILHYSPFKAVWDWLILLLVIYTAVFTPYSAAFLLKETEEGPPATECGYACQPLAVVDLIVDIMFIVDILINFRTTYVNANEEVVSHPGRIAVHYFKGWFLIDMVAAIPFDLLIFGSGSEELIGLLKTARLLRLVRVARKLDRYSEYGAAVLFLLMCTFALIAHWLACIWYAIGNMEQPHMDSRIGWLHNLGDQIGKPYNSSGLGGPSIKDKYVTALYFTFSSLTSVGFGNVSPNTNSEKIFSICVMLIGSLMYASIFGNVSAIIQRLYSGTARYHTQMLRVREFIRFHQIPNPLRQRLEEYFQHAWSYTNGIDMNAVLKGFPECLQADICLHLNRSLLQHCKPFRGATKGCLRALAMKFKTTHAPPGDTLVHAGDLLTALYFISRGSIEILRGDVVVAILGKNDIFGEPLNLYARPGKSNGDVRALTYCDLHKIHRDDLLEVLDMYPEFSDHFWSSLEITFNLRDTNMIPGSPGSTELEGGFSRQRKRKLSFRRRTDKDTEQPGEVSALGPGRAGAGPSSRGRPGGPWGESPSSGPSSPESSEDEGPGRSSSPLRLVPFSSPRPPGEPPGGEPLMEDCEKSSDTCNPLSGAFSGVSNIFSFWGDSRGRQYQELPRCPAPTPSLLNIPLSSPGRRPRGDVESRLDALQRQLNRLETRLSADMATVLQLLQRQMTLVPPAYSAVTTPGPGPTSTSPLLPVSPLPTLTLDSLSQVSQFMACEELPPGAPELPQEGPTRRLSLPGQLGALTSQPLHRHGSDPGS

[21] = organism: Homo sapiens; test: Inhibition of BZD receptor (unknown origin) at 10 uM relative to control
[22] = test system: Mus musculus; test: as §1, with “neutrophil” for “macrophages”; type: functional
[23] = test system: Mus musculus; test: as §1, with “neutrophil” for “macrophages”, “10” for “30”; type: functional
[24] = Half life in C57/BL6 mouse at 30 mg/kg, po; type: ADME, organism-based; details: in vivo
[25] = test system: Mus musculus; test: as §1, with “10” for “30”; type: functional
[26] = test system: Mus musculus; test: as §1, with “total leukocyte” for “macrophages”, “3” for “30”, “hemocytometry” for “Leishman's staining based assay”; type: functional
[27] = biological target: T1, Carbonyl reductase [NADPH] 1 (Homo sapiens) (UniProt P16152); test: Inhibition of CBR1 (unknown origin) assessed as reduction in NADP+ production at 10 uM by spectrophotometric analysis relative to control
T1 sequence (whole entry): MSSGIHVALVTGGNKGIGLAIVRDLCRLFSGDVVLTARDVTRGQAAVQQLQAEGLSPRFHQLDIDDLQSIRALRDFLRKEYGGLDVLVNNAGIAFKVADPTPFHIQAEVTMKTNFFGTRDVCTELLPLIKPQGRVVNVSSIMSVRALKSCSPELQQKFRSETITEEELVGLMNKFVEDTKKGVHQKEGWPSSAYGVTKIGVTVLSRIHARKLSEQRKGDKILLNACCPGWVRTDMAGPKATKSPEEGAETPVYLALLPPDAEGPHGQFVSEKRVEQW

[28] = test system: Mus musculus; test: as §1, with “neutrophil” for “macrophages”, “100” for “30”; type: functional
[29] = biological target: CYP2C19 (Homo sapiens, UniProt P33261); test: Inhibition of CYP2C19 in human liver microsomes at 10 uM after 40 mins in presence of NADPH by LC/MS/MS analysis relative to control; type: ADME
Chain of CYP2C19 (P33261 whole entry): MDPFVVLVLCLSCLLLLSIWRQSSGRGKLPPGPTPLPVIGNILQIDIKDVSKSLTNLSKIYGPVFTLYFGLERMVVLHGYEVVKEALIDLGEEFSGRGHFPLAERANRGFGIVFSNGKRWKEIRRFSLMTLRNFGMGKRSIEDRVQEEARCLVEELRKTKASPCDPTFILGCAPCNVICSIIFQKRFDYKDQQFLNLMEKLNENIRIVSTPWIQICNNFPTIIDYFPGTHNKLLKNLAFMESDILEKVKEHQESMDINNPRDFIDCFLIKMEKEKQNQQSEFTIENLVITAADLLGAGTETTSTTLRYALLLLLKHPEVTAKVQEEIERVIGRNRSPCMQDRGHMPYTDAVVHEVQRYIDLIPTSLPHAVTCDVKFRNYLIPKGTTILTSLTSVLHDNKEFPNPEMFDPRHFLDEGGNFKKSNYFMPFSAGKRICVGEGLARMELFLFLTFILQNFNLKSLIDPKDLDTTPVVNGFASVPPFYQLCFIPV

[30] = Aqueous solubility of compound in DMSO; type: physicochemical
[31] = organism: Homo sapiens; test: Inhibition of I2 receptor (unknown origin) at 10 uM relative to control
[32] = organism: Homo sapiens; test: Inhibition of chloride channel (unknown origin) at 10 uM relative to control
[33] = Efflux ratio of apparent permeability across basolateral to apical side over apical to basolateral side in human Calu3 cells; type: ADME, cell-based, Calu-3
[34] = organism: Rattus norvegicus; test: Displacement of [35S]dATPalphaS to rat P2Y receptor at 10 uM after 60 mins by scintillation counting analysis relative to control
[35] = biological target: Alcohol dehydrogenase class-3 (Mus musculus, UniProt P28474); test: Inhibition of mouse GSNOR assessed as reduction in NADH consumption after 3 mins by spectrophotometric analysis
Chain of Alcohol dehydrogenase class-3 (Mus musculus, UniProt P28474) (P28474 whole entry): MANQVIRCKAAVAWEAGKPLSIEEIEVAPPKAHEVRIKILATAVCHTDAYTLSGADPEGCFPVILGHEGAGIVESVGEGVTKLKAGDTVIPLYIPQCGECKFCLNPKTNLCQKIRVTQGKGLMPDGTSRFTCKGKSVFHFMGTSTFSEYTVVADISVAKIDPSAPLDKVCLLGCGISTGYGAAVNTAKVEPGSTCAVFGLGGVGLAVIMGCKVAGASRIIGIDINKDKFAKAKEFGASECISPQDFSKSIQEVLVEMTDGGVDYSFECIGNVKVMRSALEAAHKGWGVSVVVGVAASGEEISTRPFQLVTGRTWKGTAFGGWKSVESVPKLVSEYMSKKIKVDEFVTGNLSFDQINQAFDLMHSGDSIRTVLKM

[36] = Oral bioavailability in C57/BL6 mouse at 30 mg/kg; type: ADME, organism-based; details: in vivo

Structure (SMILES): Clc1cc(-c2nnn[nH]2)ccc1-c1ccc(-n2ccnc2)cc1
- inhibition at 20 min, 10 µM [1]: 86%
- remaining at 1 h, 0.1 µM [2]: 43%
- Cmax [3]: 8960 ng/mL
- solubility [4]: 7 µg/mL (≈ 21.7 µM)
- Activity [5]: 61%
- inhibition [6]: 100%
- AUC(0-t) at 24 h [7]: 69900 ng·h/mL
- solubility [8]: 0.6 µg/mL (≈ 1.86 µM)
- Vd [9]: 0.41 L/kg
- Activity [10]: 19%
- inhibition at 20 min, 10 µM [11]: 55%
- IC50 [12]: 9.1 nM
- inhibition [13]: 60%
- solubility [14]: 20 µg/mL (≈ 62 µM)
- Papp [15]: 8.23 ×10⁻⁶ cm/s
- Papp [16]: 0.12 ×10⁻⁶ cm/s
- IC50 [17]: 9.2 nM
- solubility [18]: 1.1 µg/mL (≈ 3.41 µM)
- Kp [19]: 0.38
- inhibition at 10 µM [20]: 11%
- inhibition [21]: 50%
- Activity [22]: 37%
- Activity [23]: 25%
- half-life [24]: 6 h
- Activity [25]: 59%
- Activity [26]: 32%
- inhibition [27]: 24%
- Activity [28]: 47%
- inhibition at 40 min, 10 µM [29]: 86%
- solubility [30]: 20000 µg/mL (≈ 62000 µM)
- inhibition [31]: 88%
- inhibition [32]: 50%
- efflux ratio [33]: 0.8
- inhibition [34]: 59%
- IC50 [35]: 7.1 nM
- bioavailability [36]: 21%
